Where two headings read alike, the source gives them in different places.
Settings: rcm bond, Grubbs II, DCM, 40.0 °C

COC(=O)Nc1ccc2c(c1)NC(=O)[C@H](C)/C=C/C[C@H](NC(=O)OC(C)(C)C)c1nc-2cn1COCC[Si](C)(C)C
ring closure, yield of all isomers (from C=CC[C@H](NC(=O)OC(C)(C)C)c1nc(-c2ccc(NC(=O)OC)cc2NC(=O)[C@H](C)C=C)cn1COCC[Si](C)(C)C, 9.73 mM, 21.5 h): 74%

COC(=O)Nc1ccc2c(c1)NC(=O)[C@H](C)/C=C/C[C@H](NC(=O)OC(C)(C)C)c1cc-2ccn1
ring closure, yield of all isomers (from C=CC[C@H](NC(=O)OC(C)(C)C)c1cc(-c2ccc(NC(=O)OC)cc2NC(=O)[C@H](C)C=C)ccn1, 11.76 mM, 4.0 h): 71.2%

C[C@@H]1/C=C/C[C@H](NC(=O)OC(C)(C)C)c2cn(COCC[Si](C)(C)C)c(n2)-c2ccc([N+](=O)[O-])cc2NC1=O
ring closure, yield of all isomers (from C=CC[C@H](NC(=O)OC(C)(C)C)c1cn(COCC[Si](C)(C)C)c(-c2ccc([N+](=O)[O-])cc2NC(=O)[C@H](C)C=C)n1, 1.016 mM): 55.9%

Reference: US9376444
